Test results taken from article PMC5742115, “Pharmacophore Modeling and in Silico/in Vitro Screening for Human Cytochrome P450 11B1 and Cytochrome P450 11B2 Inhibitors” (Frontiers in Chemistry, 2017).
“And” between values parts separate entries of the source, which are not always exact repeats. Equal entries are not always repeated. Where two headings read alike, the source gives them in different places.

Columns and labels:
[1] = biological target: T1, Human CYP17 (Homo sapiens, UniProt P05093); design: method as in Sergejew and Hartmann, 1994; conditions: reference inhibitor; ref Sergejew and Hartmann, 1994; cited from earlier work
T1 construct: made in house; host or cells: Escherichia coli (5,000 g sediment of the homogenate)
T1 sequence (P05093 1-508): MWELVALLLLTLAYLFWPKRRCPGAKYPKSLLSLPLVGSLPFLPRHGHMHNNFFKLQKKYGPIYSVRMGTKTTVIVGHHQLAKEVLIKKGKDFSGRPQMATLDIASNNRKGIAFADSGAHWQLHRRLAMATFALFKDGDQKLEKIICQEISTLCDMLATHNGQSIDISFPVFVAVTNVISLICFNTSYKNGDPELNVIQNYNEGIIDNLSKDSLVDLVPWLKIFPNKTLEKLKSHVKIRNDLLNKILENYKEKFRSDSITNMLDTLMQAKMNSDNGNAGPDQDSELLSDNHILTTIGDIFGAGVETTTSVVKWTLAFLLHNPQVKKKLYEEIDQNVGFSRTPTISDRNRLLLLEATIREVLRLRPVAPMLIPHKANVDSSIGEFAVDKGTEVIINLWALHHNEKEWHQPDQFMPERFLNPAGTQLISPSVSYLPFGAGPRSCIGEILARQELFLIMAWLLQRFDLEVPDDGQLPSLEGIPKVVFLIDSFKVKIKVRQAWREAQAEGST

[2] = tested on: CYP11B1; conditions: 2013, read-out: hCYP11B1 IC50, cited from earlier work
[3] = tested on: CYP11B2; conditions: 2013, read-out: hCYP11B2 IC50, cited from earlier work
[4] = biological target: T1, Human CYP17; assay: CYP17 inhibition assay; format: biochemical; conditions: at 10 μM concentration; for CYP17 inhibition: human CYP17 from Escherichia coli, n.i. = not inhibited
Experimental: The inhibition of CYP17 was investigated using the 5,000 g sediment of homogenized Escherichia coli (Ehmer et al., [2000]). Human CYP17 along with NADPH-P450 reductase was used to perform the assay as described previously. The incubation time for the reaction was 30 min at 37°C. The reaction was started by adding [^3H]-progesterone, and was quenched with 1 M HCl. The reaction mixture was extracted twice with ethyl acetate at 4°C in order to avoid impurities. The samples were dried, prepared with methanol, and analyzed with radio-HPLC. DSMO was used as negative control.

[5] = biological target: T2, human CYP11B2 (Homo sapiens, UniProt P19099); assay: CYP11B2 inhibition assay in V79MZh cells; format: cell-based; conditions: for inhibition at 10 µM: at 10 μM concentration, V79MZh cells; for IC50: human CYP11B2 expressed in hamster V79MZh cells, mean of at least three experiments
T2 construct: expressed in transfected cells; host or cells: hamster V79MZh cells
T2 sequence (P19099 25-503): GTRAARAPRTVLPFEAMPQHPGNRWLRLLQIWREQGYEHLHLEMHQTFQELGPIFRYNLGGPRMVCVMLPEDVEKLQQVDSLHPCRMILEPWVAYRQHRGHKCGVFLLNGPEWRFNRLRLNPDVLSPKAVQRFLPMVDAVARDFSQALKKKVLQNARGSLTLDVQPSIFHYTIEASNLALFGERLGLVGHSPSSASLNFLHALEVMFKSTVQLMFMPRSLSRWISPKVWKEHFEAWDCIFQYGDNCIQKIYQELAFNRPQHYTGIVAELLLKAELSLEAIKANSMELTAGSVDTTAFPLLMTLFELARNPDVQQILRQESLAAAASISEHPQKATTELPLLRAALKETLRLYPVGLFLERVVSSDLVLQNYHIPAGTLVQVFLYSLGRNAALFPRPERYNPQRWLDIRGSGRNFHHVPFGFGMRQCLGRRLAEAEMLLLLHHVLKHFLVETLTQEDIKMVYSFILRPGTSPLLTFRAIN
Experimental: (§1) The selected potential inhibitors were dissolved in DMSO at a concentration of 10 mM to generate stock solutions. Various aliquots were then made from fresh stock solutions and each aliquot was tested only once.
(§2) The selected hits were evaluated for their inhibition of human CYP11B1 and CYP11B2 enzymes expressed in hamster V79MZh cells. Approximately […] V79MZh cells were cultured in 24-well cell culture plates for 24 h. The area of each well was 1.9 cm^2. The cells were exposed to various concentrations of inhibitor solutions. The reactions were started by incubating the cells with [^3H]11-deoxycorticosterone. The incubation time for CYP11B1 cells was 15–60 and 50–120 min for CYP11B2 cells. The reactions were stopped by extracting the supernatant with cold ethyl acetate at 4°C. Samples were mixed (10 min), and centrifuged (12,500 rpm). The organic (upper) layer was separated into fresh Eppendorf tubes and dried. The steroids were re-dissolved in methanol-water (65–35%) and were analyzed by radio-HPLC (Denner et al., [1995a]; Ehmer et al., [2002]).

[6] = biological target: T3, human CYP11B1 (Homo sapiens, UniProt P15538); assay: CYP11B1 inhibition assay in V79MZh cells; format: cell-based; conditions: for inhibition at 10 µM: at 10 μM concentration, V79MZh cells; for IC50: human CYP11B1 expressed in hamster V79MZh cells, mean of at least three experiments
T3 construct: expressed in transfected cells; host or cells: hamster V79MZh cells
T3 sequence (P15538 25-503): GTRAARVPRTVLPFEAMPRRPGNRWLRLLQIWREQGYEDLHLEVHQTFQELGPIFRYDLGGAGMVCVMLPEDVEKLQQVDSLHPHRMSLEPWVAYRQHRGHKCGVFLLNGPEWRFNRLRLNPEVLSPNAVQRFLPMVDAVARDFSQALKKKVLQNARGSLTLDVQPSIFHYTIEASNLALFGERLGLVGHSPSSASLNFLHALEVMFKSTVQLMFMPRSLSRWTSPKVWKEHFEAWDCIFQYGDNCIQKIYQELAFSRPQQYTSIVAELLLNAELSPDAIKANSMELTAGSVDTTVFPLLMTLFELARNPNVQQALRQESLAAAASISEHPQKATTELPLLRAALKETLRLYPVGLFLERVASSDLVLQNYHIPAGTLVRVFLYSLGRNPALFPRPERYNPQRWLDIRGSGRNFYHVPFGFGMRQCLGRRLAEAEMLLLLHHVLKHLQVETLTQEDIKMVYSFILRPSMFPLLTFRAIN
Experimental: as §1, §2

[7] = Figure 2, ref Yin et al., 2012, Emmerich et al., Gobbi et al., 2016
[8] = Figure 3, training compounds, ref Meredith et al.

inhibition at 10 µM [4] [%]	CYP17 inhibition [4]	IC50 [5]	inhibition at 10 µM [6] [%]	IC50 [6]	SMILES	other results
					C[C@]12CC[C@H](O)CC1=CC[C@@H]1[C@@H]2CC[C@]2(C)C(c3cccnc3)=CC[C@@H]12 [Abiraterone]	IC50 [1]: 100 nM
					Cc1cncc(Cc2ccc(-c3ccccc3)nc2)c1 [Compound 1]	IC50 [2, 7]: 2 nM; IC50 [3, 7]: 33 nM
					O=C1CCc2cc(C(C3CC3)n3ccnc3)cc3c2N1CC3 (stereo not drawn) [Compound 2]	IC50 [2, 7]: 2.2 nM; IC50 [3, 7]: 24 nM
					O=c1c(Cn2ccnc2)c(-c2ccccc2)oc2cc(F)ccc12 [Compound 3]	IC50 [2, 7]: 9.7 nM; IC50 [3, 7]: 94.9 nM
					N#Cc1ccc([C@@H]2CCCCc3cncn32)c(-c2ccc(F)cc2)c1 [Compound 4]	IC50 [2, 8]: 0.4 nM; IC50 [3, 8]: 0.3 nM
					N#Cc1ccc(C2(C(=O)OCc3ccc(F)cc3)CCc3cncn32)c(Cl)c1 (stereo not drawn) [Compound 5]	IC50 [2, 8]: < 0.1 nM; IC50 [3, 8]: 3.8 nM
≤ 3	n.i.^e	2770 ± 480 nM	> 50	3040 ± 720 nM	CC(C)CC(=O)Nc1ccc(Cc2ccncc2)cc1 [Compound 8]	inhibition at 10 µM [5]: > 50%
≤ 3	n.i.	80 ± 5 nM	> 50	210 ± 40 nM	CC(OCc1ccc(F)cc1)n1ccnc1 (stereo not drawn) [Compound 9]	inhibition at 10 µM [5]: > 50%
≤ 3	n.i.	110 ± 20 nM	> 50	130 ± 20 nM	COc1cc(Cl)c(S(=O)(=O)n2ccnc2)cc1Cl [Compound 10]	inhibition at 10 µM [5]: > 50%
		15600 ± 8450 nM		2500 nM and 2520 nM	CN(C)C(c1ccccc1)c1nnnn1-c1ccc(Cl)cc1 (stereo not drawn) [Compound 11]	selectivity factor for CYP11B1 inhibition over CYP11B2 ([6]; from IC50 values): 6
≤ 3	n.i.	1100 nM and 1120 nM	33 ± 6		c1ccc2c(-c3nn4cnnc4s3)cccc2c1 [Compound 12]	
